No end group written: not given here.
Key:
Type in all cases: physicochemical
[1] = Freeze–thaw stability of model peptides, UPLC-MS; conditions: 150 µg/mL in PBS, two freeze–thaw cycles, fivefold on three consecutive days
Protocol: A UPLC-MS system was used for the development and validation of the stability-indicating analytical method. The apparatus, column, flow rate, mobile phase A, mobile phase B, mass acquisition, and sample run time were: UPLC UltiMate 3000 RSLC System (Thermo Fisher Scientific, Waltham, MA, USA) coupled to a Q Exactive Orbitrap Mass Spectrometers (Thermo Fisher Scientific, Waltham, MA, USA); Acquity UPLC Peptide CSH C18, 130 Å, 1.7 µm, 2.1 mm × 150 mm (Waters Corporation, Milford, MA, USA); 0.40 mL/min; 0.013% ammonium formate and 0.1% formic acid dissolved in ultrapure water (pH 2.8); 0.013% ammonium formate and 0.1% formic acid dissolved in a mixture of 0.495:0.495:0.10 methanol, acetonitrile, and ultrapure water; masses scanned from 300.0–1900.0 m/z; 15 min; respectively. The mobile phase gradient started at t0 min with 98% of mobile phase A that was gradually adjusted to 40% at t9 min. At t9.1 min, mobile phase A was set at 2% till t11.1 min. At t11.2 min, mobile phase A was set at 98% until the end of the sample run time.
For each peptide, six stock concentrations in the range of 5–225 µg/mL dissolved in PBS were made. The linear relationship of the calibration curves was investigated by regression analysis. The linear correlation coefficient (R^2), goodness of fit, and lack of fit were analyzed. For the accuracy and precision tests, samples of 50 µg/mL, 150 µg/mL, and 225 µg/mL were analyzed in triplicate on three consecutive days to determine the closeness of agreement of the measurements compared to the analyzed concentrations (accuracy % bias) and repeated experiments (relative standard deviations (RSD)). For the sensitivity test, peptide samples at 5 µg/mL were analyzed in triplicate on three consecutive days and the signal-to-noise (S/N) ratio was calculated from representative chromatograms. For the freeze–thaw experiment, samples at 150 µg/mL for each of the three peptides were prepared and analyzed in fivefold on three consecutive days after each sample was subjected to two freeze–thaw cycles before the analysis was initiated.

[2] = Release testing and long-term (frozen) stability of aqueous peptide mixtures (143 µg/mL per peptide in PBS 10 mM pH 7.0), UPLC-MS
[3] = Filter experiment: peptide adsorption to the 0.22 µm sterilization filter, UPLC-MS; conditions: unfiltered sample
[4] = In-use stability of thawed aqueous peptide mixtures at room temperature, UPLC-MS; conditions: 4 h room temperature

In the case of “VTLEERLDKACEPGVDYDGQTGVIHFQPRG [FRM001P23]”, the “Freeze–thaw stability, average bias” value [1] is reported as 4%.
For “SAMEKRGARETQQQRKRVFRGRGVNSAK [FRM001P11]”, the “Freeze–thaw stability, average bias” value [1] was 1%.
With “NTDPSCSCVTPLDFNHCLKNREDNGLPMLS [FRM001P10, neoantigen peptide, in FRM001-M2]” the Peptide peak ratio ([2]; in FRM001-M2, 2 w −25 °C) was 7.2%, the Peptide peak ratio ([2]; in FRM001-M2, 4 w −25 °C) was 11.5% and the Peptide peak ratio ([2]; in FRM001-M2, 8 w −25 °C) was 11.0%. For the same sequence, the Peptide peak ratio ([2]; in FRM001-M2, 8 w −80 °C) was 12.9%, the Peptide peak ratio ([2]; in FRM001-M2, 12 w −25 °C) was 14.2% and the Peptide peak ratio ([2]; in FRM001-M2, 12 w −80 °C) was 13.8%. The Peptide peak ratio ([2]; in FRM001-M2, 16 w −25 °C) was 9.6%, the Peptide peak ratio ([2]; in FRM001-M2, 16 w −80 °C) was 10.4% and the Peptide peak ratio ([2]; in FRM001-M2, 32 w −25 °C) was 10.8%. For the same sequence, the Peptide peak ratio ([2]; in FRM001-M2, 32 w −80 °C) was 10.7%, the Peptide peak ratio ([2]; in FRM001-M2, t = 0 w) was 9.1% and the Peak ratio ([3]; in FRM001M2) was 6.1%. For the same sequence, the Peptide peak ratio ([4]; in FRM001-M2, 2 w −25 °C) was 8.9%, the Peptide peak ratio ([4]; in FRM001-M2, 4 w −25 °C) was 12.1% and the Peptide peak ratio ([4]; in FRM001-M2, 8 w −25 °C) was 12.1%. It also gave a Peptide peak ratio ([4]; in FRM001-M2, 8 w −80 °C) of 12.0%, a Peptide peak ratio ([4]; in FRM001-M2, 12 w −25 °C) of 13.7% and a Peptide peak ratio ([4]; in FRM001-M2, 12 w −80 °C) of 13.2%. The Peptide peak ratio ([4]; in FRM001-M2, 16 w −25 °C) was 10.2%, the Peptide peak ratio ([4]; in FRM001-M2, 16 w −80 °C) was 10.1% and the Peptide peak ratio ([4]; in FRM001-M2, 32 w −25 °C) was 9.6%. It also gave a Peptide peak ratio ([4]; in FRM001-M2, 32 w −80 °C) of 9.3%.
“GVDYASCGHLVKIWPRRMNRSDVCTVWS [FRM001P13, neoantigen peptide, in FRM001-M4]” showed a Peptide peak ratio ([2]; in FRM001-M4, 2 w −25 °C) of 13.6%, a Peptide peak ratio ([2]; in FRM001-M4, 4 w −25 °C) of 14.6% and a Peptide peak ratio ([2]; in FRM001-M4, 8 w −25 °C) of 14.7%. It also gave a Peptide peak ratio ([2]; in FRM001-M4, 8 w −80 °C) of 14.9%, a Peptide peak ratio ([2]; in FRM001-M4, 12 w −25 °C) of 14.4% and a Peptide peak ratio ([2]; in FRM001-M4, 12 w −80 °C) of 14.6%. For the same sequence, the Peptide peak ratio ([2]; in FRM001-M4, 16 w −25 °C) was 13.3%, the Peptide peak ratio ([2]; in FRM001-M4, 16 w −80 °C) was 13.1% and the Peptide peak ratio ([2]; in FRM001-M4, 32 w −25 °C) was 13.6%. For the same sequence, the Peptide peak ratio ([2]; in FRM001-M4, 32 w −80 °C) was 13.9%, the Peptide peak ratio ([2]; in FRM001-M4, t = 0 w) was 14.2% and the Peak ratio ([3]; in FRM001M4) was 14.1%. For the same sequence, the Peptide peak ratio ([4]; in FRM001-M4, 2 w −25 °C) was 13.4%, the Peptide peak ratio ([4]; in FRM001-M4, 4 w −25 °C) was 14.5% and the Peptide peak ratio ([4]; in FRM001-M4, 8 w −25 °C) was 14.4%. For the same sequence, the Peptide peak ratio ([4]; in FRM001-M4, 8 w −80 °C) was 14.7%, the Peptide peak ratio ([4]; in FRM001-M4, 12 w −25 °C) was 14.6% and the Peptide peak ratio ([4]; in FRM001-M4, 12 w −80 °C) was 14.4%. For the same sequence, the Peptide peak ratio ([4]; in FRM001-M4, 16 w −25 °C) was 13.1%, the Peptide peak ratio ([4]; in FRM001-M4, 16 w −80 °C) was 13.0% and the Peptide peak ratio ([4]; in FRM001-M4, 32 w −25 °C) was 13.5%. For the same sequence, the Peptide peak ratio ([4]; in FRM001-M4, 32 w −80 °C) was 13.4%.

Reference: publication PMC9322189, “Development of a Personalized Tumor Neoantigen Based Vaccine Formulation (FRAME-001) for Use in a Phase II Trial for the Treatment of Advanced Non-Small Cell Lung Cancer” (Pharmaceutics, 2022)
